# pIC50: −log10 of the molar value.
# What was measured:
# [1] = tested on: Molt4-5×MRE-FLuc cells; test: Cell-Titer Glo viability assay, Molt4-5×MRE-FLuc cells; format: cell-based; settings: 4 hours; read-out: IC50 Cell Titer Glo Molt4-5xMRE-FLuc Viability
# Description: Molt4-5×MRE-FLuc cells were plated at a density of 10000 cells/well in 25 uL of media in a 384-well plate. The following day, compound analogs were added using a Tecan transfer tool. The plates were incubated for 4 hours, and then the viability was measured using promega Cell-titer glo assay according to the manufacturer's protocols.
# [2] = tested on: endogenous Myb protein; test: Molt4-5×MRE-FLuc reporter assay; format: cell-based; settings: 4 hours, One-Glo, normalized to DMSO; read-out: IC50 Molt4-5xMRE-FLuc Reporter
# Description: Molt4 cells were stably transduced with a lentiviral construct encoding a 5×MRE Myb-responsive promoter driving firefly luciferase expression. The reporter output is controlled by the levels/activity of endogenous Myb protein in the Molt4 cell line.
# Molt4-5×MRE-FLuc cells were plated at a density of 10000 cells/well in 25 uL of media in a 384-well plate. Compound analogs were added using a Tecan transfer tool to the wells. The plate was incubated for 4 hours, and then firefly luciferase signal measured using promega One-Glo luciferase assay system according to the manufacturer's protocols. The signal was normalized to control wells which were treated with DMSO vehicle.
Structure (SMILES),pIC50 [1],pIC50 [2]
"CC(=O)N(Cc1cccc(N2CCCC2)c1)C1CCN(c2cc(C)nc(N)n2)CC1 [KI-TM1-004, N-(1-(2-amino-6-methylpyrimidin-4-yl)piperidin-4-yl)-N-(3-(pyrrolidin-1-yl)benzyl)acetamide]",< 4.40,< 4.40
"Cc1cc(NCCCNCc2cccc(N3CCCC3)c2)nc(N)n1 [KI-TM1-017, 6-Methyl-N^4-(3-((3-(pyrrolidin-1-yl)benzyl)amino)propyl)pyrimidine-2,4-diamine]",< 4.40,< 4.40
"Cc1cc(N2CCC(NCc3ccccc3N3CCCC3)CC2)nc(N)n1 [KI-TM1-006, 4-methyl-6-(4-((2-(pyrrolidin-1-yl)benzyl)amino)piperidin-1-yl)pyrimidin-2-amine]",< 4.40,< 4.40
"C#CCCC1(CCN(Cc2cccc(N3CCCC3)c2)C2CCN(c3cc(C)nc(N)n3)CC2)N=N1 [KI-TM1-030, 4-(4-((2-(3-(But-3-yn-1-yl)-3H-diazirin-3-yl)ethyl)(3-(pyrrolidin-1-yl)benzyl)amino)-piperidin-1-yl)-6-methylpyrimidin-2-amine]",< 4.40,4.70
"Cc1cc(N2CCC(NCc3cccc(-n4ccnc4)c3)CC2)nc(N)n1 [KI-TM1-014, 4-(4-((3-(1H-imidazol-1-yl)benzyl)amino)piperidin-1-yl)-6-methylpyrimidin-2-amine]",< 4.40,< 4.40
"Cc1cc(N2CCC(NCc3ccc(N4CCCC4)cc3)CC2)nc(N)n1 [KI-TM1-007, 4-methyl-6-(4-((4-(pyrrolidin-1-yl)benzyl)amino)piperidin-1-yl)pyrimidin-2-amine]",< 4.40,< 4.40
"Cc1cc(N2CCC(NC(=O)c3cccc(N4CCCC4)c3)CC2)nc(N)n1 [KI-TM1-008, N-(1-(2-amino-6-methylpyrimidin-4-yl)piperidin-4-yl)-3-(pyrrolidin-1-yl)benzamide]",< 4.40,< 4.40
"Cc1cc(N2CCC(NCc3cccc(N4CCCCC4)c3)CC2)nc(N)n1 [KI-TM1-009, 4-methyl-6-(4-((3-(piperidin-1-yl)benzyl)amino)piperidin-1-yl)pyrimidin-2-amine]",< 4.40,4.63
"Cc1cc(N2CCC[C@H](NCc3cccc(N4CCCC4)c3)C2)nc(N)n1 [KI-TM1-016S, (S)-4-Methyl-6-(3-((3-(pyrrolidin-1-yl)benzyl)amino)piperidin-1-yl)pyrimidin-2-amine]",< 4.40,4.65
"Cc1cc(N2CCC(NCc3cccc(C(C)(C)C)c3)CC2)nc(N)n1 [KI-TM1-026, 4-(4-((3-(tert-Butyl)benzyl)amino)piperidin-1-yl)-6-methylpyrimidin-2-amine]",< 4.40,< 4.40
"Cc1cc(N2CCC(NCc3cccc(-n4cccc4)c3)CC2)nc(N)n1 [KI-TM1-010, 4-(4-((3-(1H-pyrrol-1-yl)benzyl)amino)piperidin-1-yl)-6-methylpyrimidin-2-amine]",< 4.40,4.67
"Cc1cc(N2CCC(NCc3cccc(N4CCCC4)c3)CC2)ncn1 [KI-TM1-019, 1-(6-Methylpyrimidin-4-yl)-N-(3-(pyrrolidin-1-yl)benzyl)piperidin-4-amine]",< 4.40,4.65
"COc1cccc(CNC2CCN(c3cc(C)nc(N)n3)CC2)c1 [KI-TM1-012, 4-(4-((3-methoxybenzyl)amino)piperidin-1-yl)-6-methylpyrimidin-2-amine]",< 4.40,< 4.40
"Cc1cc(N2CCC(NCc3cccc(CN4CCCC4)c3)CC2)nc(N)n1 [KI-TM1-028, 4-Methyl-6-(4-((3-(pyrrolidin-1-ylmethyl)benzyl)amino)piperidin-1-yl)pyrimidin-2-amine]",< 4.40,< 4.40
"Cc1cc(N2CCC(NCc3cccc(N(C)C)c3)CC2)nc(N)n1 [KI-TM1-011, 4-(4-((3-(dimethylamino)benzyl)amino)piperidin-1-yl)-6-methylpyrimidin-2-amine]",< 4.40,< 4.40
"Cc1cc(N2CCC(N(Cc3cccc(N4CCCC4)c3)C(=O)NC(C)C)CC2)nc(N)n1 [KI-TM1-003, 1-(1-(2-Amino-6-methylpyrimidin-4-yl)piperidin-4-yl)-3-isopropyl-1-(3-(pyrrolidin-1-yl)benzyl)urea]",< 4.40,< 4.40
"Cc1cc(N2CCC[C@@H](NCc3cccc(N4CCCC4)c3)C2)nc(N)n1 [KI-TM1-016R, (R)-4-Methyl-6-(3-((3-(pyrrolidin-1-yl)benzyl)amino)piperidin-1-yl)pyrimidin-2-amine]",< 4.40,< 4.40
"CCN(CC)c1ccc(CNC2CCN(c3cc(C)nc(N)n3)CC2)cc1 [KI-TM1-027, 4-(4-((4-(Diethylamino)benzyl)amino)piperidin-1-yl)-6-methylpyrimidin-2-amine]",< 4.40,< 4.40

# More lines, main results first:
pIC50 [1],Structure (SMILES),pIC50 [2]
< 4.40,"Cc1cc(N2CCC(NCc3cccc(N4CCCC4)c3)CC2)nc(NCCO)n1 [KI-TM1-037, 2-((4-Methyl-6-(4-((3-(pyrrolidin-1-yl)benzyl)amino)piperidin-1-yl)pyrimidin-2-yl)amino)ethan-1-ol]",< 4.40
< 4.40,"Cc1cc(N2CCC(NCc3cccc(N4CCN(C)CC4)c3)CC2)nc(N)n1 [KI-TM1-039, 4-Methyl-6-(4-((3-(4-methylpiperazin-1-yl)benzyl)amino)piperidin-1-yl)pyrimidin-2-amine]",< 4.40
< 4.40,"Cc1cc(N2CCCC(N(Cc3cccc(N4CCCC4)c3)C(=O)C=COCCOCCOCCN)C2)nc(N)n1 (stereo not drawn) [KI-TM1-032, N-(1-(2-Amino-6-methylpyrimidin-4-yl)piperidin-3-yl)-3-(2-(2-(2-aminoethoxy)ethoxy)-ethoxy)-N-(3-(pyrrolidin-1-yl)benzyl)propenamide]",< 4.40
< 4.40,"Cc1cc(N2CCC(NCc3cccc(N4CCOCC4)c3)CC2)nc(N)n1 [KI-TM1-040, 4-Methyl-6-(4-((3-morpholinobenzyl)amino)piperidin-1-yl)pyrimidin-2-amine]",< 4.40
< 4.40,"Cc1cc(N2CCC(N(CCCCCCOCCOCC(=O)Nc3cccc4c3C(=O)N(C3CCC(=O)NC3=O)C4=O)Cc3cccc(N4CCCC4)c3)CC2)nc(N)n1 (stereo not drawn) [KI-TM1-044, 2-(2-((6-((1-(2-Amino-6-methylpyrimidin-4-yl)piperidin-4-yl)(3-(pyrrolidin-1-yl)benzyl)amino)hexyl)oxy)ethoxy)-N-(2-(2,6-dioxopiperidin-3-yl)-1,3-dioxoisoindolin-4-yl)acetamide]",< 4.40
< 4.40,"Cc1cc(N2CCC(NCc3cccc(N4CCCC4)c3)CC2)nc(Cl)n1 [KI-TM1-033, 1-(2-Chloro-6-methylpyrimidin-4-yl)-N-(3-(pyrrolidin-1-yl)benzyl)piperidin-4-amine]",4.63
< 4.40,"Nc1nc(Cl)cc(N2CCC(NCc3cccc(N4CCCC4)c3)CC2)n1 [KI-TM1-038, 4-Chloro-6-(4-((3-(pyrrolidin-1-yl)benzyl)amino)piperidin-1-yl)pyrimidin-2-amine]",< 4.40
< 4.40,"Cc1cc(N2CCC(NCc3cccc(N4CCCC4)c3)CC2)nc(NCCOCCOCCOCCN)n1 [KI-TM1-041, N-(2-(2-(2-(2-Aminoethoxy)ethoxy)ethoxy)ethyl)-4-methyl-6-(4-((3-(pyrrolidin-1-yl)benzyl)amino)piperidin-1-yl)pyrimidin-2-amine]",< 4.40
< 4.40,"Cc1cc(N2CCC(N(CCCCCCOCCOCCOCCCCCC(=O)Nc3cccc4c3C(=O)N(C3CCC(=O)NC3=O)C4=O)Cc3cccc(N4CCCC4)c3)CC2)nc(N)n1 (stereo not drawn) [KI-TM1-043, 2-(1-(2-amino-6-methylpyrimidin-4-yl)piperidin-4-yl)-N-(2-(2,6-dioxopiperidin-3-yl)-1,3-dioxoisoindolin-4-yl)-1-(3-(pyrrolidin-1-yl)phenyl)-9,12,15-trioxa-2-azahenicosan-21-amide]",< 4.40
< 4.40,"Cc1cnc(N)nc1N1CCC(NCc2cccc(N3CCCC3)c2)CC1 [KI-TM1-036, 5-Methyl-4-(4-((3-(pyrrolidin-1-yl)benzyl)amino)piperidin-1-yl)pyrimidin-2-amine]",4.60
< 4.40,"CCCNC(=O)N(Cc1cccc(N2CCCC2)c1)C1CCN(c2cc(C)nc(N)n2)CC1 [KI-TM1-034, 1-(1-(2-Amino-6-methylpyrimidin-4-yl)piperidin-4-yl)-3-propyl-1-(3-(pyrrolidin-1-yl)benzyl)urea]",< 4.40
< 4.40,"Cc1cc(N2CCC(N(Cc3cccc(N4CCCC4)c3)C(=O)C=COCCOCCOCCN)CC2)nc(N)n1 [KI-TM1-031, N-(1-(2-Amino-6-methylpyrimidin-4-yl)piperidin-4-yl)-3-(2-(2-(2-aminoethoxy)ethoxy)-ethoxy)-N-(3-(pyrrolidin-1-yl)benzyl)propenamide]",< 4.40

# Source: US20230303512A1, “MODULATORS OF MYB-MEDIATED TRANSCRIPTION AND USES THEREOF” (Massachusetts Institute of Technology, priority 2020, published 2023)
